Laboratory results: patent US20250230193A1, “CYCLIC COMPOUND HAVING SELECTIVE KRAS INHIBITORY EFFECT ON HRAS AND NRAS” (CHUGAI SEIYAKU KABUSHIKI KAISHA, priority 2022, published 2025)
Where a SMILES comes first, the peptide text is derived from it. Bridges are numbered along the chain shown (N, C = ends). [ ]: non-standard residue; d: D form. The star is where a group is joined. hPhe(3-Cl-4-CF3) = N[C@@H](CCc1ccc(C(F)(F)F)c(Cl)c1)C(=O)O; NPrPhe(4-CF3) = CCCN[C@@H](Cc1ccc(C(F)(F)F)cc1)C(=O)O; NMePhe(4-Me) = CN[C@@H](Cc1ccc(C)cc1)C(=O)O; Pip(4,4-F2) = O=C(O)[C@@H]1CC(F)(F)CCN1; NMeGly(cPent) = CN[C@H](C(=O)O)C1CCCC1; Pro(4,4-F2) = O=C(O)[C@@H]1CC(F)(F)CN1; NMeD = CN[C@@H](CC(=O)O)C(=O)O; NMeL = CN[C@@H](CC(C)C)C(=O)O; Morpholide = C1CN(*)CCO1; NMeA = CN[C@@H](C)C(=O)O; NMeAib = CNC(C)(C)C(=O)O; Nle = CCCC[C@H](N)C(=O)O; Piperidide = C1CCN(*)CC1; Ac5c = NC1(C(=O)O)CCCC1; Aze = O=C(O)[C@@H]1CCN1; Ac4c = NC1(C(=O)O)CCC1; Sar = CNCC(=O)O

Assays:
[1] = biological target: GDP-bound HRAS wild-type protein (Homo sapiens, UniProt P01112); test: Binding to HRAS by surface plasmon resonance (SPR), Single Cycle Kinetics; details: KD ratio HRAS/KRAS
[2] = biological target: GDP-bound NRAS wild-type protein (Homo sapiens, UniProt P01111); test: Binding to NRAS by surface plasmon resonance (SPR), Single Cycle Kinetics; details: KD ratio NRAS/KRAS
[3] = SPR, GDP-bound wild-type proteins

Chain of GDP-bound NRAS wild-type protein (P01111 whole entry): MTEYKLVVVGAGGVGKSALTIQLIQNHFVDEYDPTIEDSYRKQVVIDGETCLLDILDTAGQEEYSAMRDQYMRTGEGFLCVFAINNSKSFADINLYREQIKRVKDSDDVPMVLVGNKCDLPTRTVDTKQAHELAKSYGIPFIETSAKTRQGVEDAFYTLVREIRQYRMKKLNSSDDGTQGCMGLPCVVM
Chain of GDP-bound HRAS wild-type protein (P01112 whole entry): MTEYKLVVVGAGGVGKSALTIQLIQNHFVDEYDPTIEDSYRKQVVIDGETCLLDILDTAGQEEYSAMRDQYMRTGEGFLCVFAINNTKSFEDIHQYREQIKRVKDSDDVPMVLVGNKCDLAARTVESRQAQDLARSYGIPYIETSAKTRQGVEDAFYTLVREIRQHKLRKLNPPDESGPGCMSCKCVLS

Question: For `CCCC[C@@H]1NC(=O)[C@H](CCc2ccc(C(F)(F)F)c(Cl)c2)NC(=O)CN(C)C(=O)[C@H](Cc2ccc(C)cc2)N(C)C(=O)CN(C)C(=O)CN(C)C(=O)[C@H]([C@@H](C)CC)NC(=O)[C@H](CC(C)C)N(C)C(=O)C[C@@H](C(=O)N2CCCCC2)N(C)C(=O)[C@H](CC(C)C)NC(=O)C(C)(C)N(C)C1=O` [PP0049] ([NMeL]I[Sar][Sar][NMePhe(4-Me)][Sar][hPhe(3-Cl-4-CF3)][Nle][NMeAib]L[NMeD]-Piperidide; lactam N-11), which “HRAS/KRAS (ratio of KD for GDP-bound HRAS wild-type to KD for KRAS)” value ([1]; SPR) is on record?
Answer: Its value is “C (A compound having a KD ratio of 0.1 or more and less than 3 is denoted as C)”.

Question: And the “NRAS/KRAS (ratio of KD for GDP-bound NRAS wild-type to KD for KRAS)” value ([2]; SPR)?
Answer: Its value is “C (A compound having a KD ratio of 0.1 or more and less than 3 is denoted as C)”.

Question: Which “HRAS/KRAS (ratio of KD value with respect to GDP-bound HRAS wild-type protein to KD value with respect to KRAS)” value [1, 3] does the source give for `CC[C@H](C)[C@@H]1NC(=O)[C@@H]2CCCCCCc3ccc(cc3)C[C@@H](C(=O)N(C)CC(=O)N[C@@H](CCc3ccc(C(F)(F)F)c(OC)c3)C(=O)N3CC4(CC4)C[C@H]3C(=O)NC3(CC(C)(C)C3)C(=O)N(C)[C@@H](C3CCCC3)C(=O)N(C)[C@H](C(=O)N(C)C)CC(=O)N2C)N2CC/C=C\C[C@@H](C2=O)N(C)C(=O)CN(C)C1=O` [PP3069] here?
Answer: The value was “B (a compound having 3 or more and less than 10 is denoted as B)”.

Question: And the “NRAS/KRAS (ratio of KD value with respect to GDP-bound NRAS wild-type protein to KD value with respect to KRAS)” value [2, 3]?
Answer: The value was “A (a compound having 10 or more and less than 20 is denoted as A)”.

Question: Which results are given for `CC[C@H](C)[C@@H]1NC(=O)[C@H](CC2CC2)N(C)C(=O)C[C@@H](C(=O)N(C)CC)N(C)C(=O)[C@H](C2CCCC2)N(C)C(=O)C2(CC(C)(C)C2)NC(=O)[C@@H]2C[C@@H](F)CN2C(=O)[C@H](CCc2cc(F)c(C(F)(F)F)c(F)c2)NC(=O)CN(C)C(=O)[C@H](Cc2ccc(C)cc2)N2CC/C=C\C[C@@H](C2=O)N(C)C(=O)CN(C)C1=O` [PP2802]?
Answer: HRAS/KRAS (ratio of KD value with respect to GDP-bound HRAS wild-type protein to KD value with respect to KRAS) ([1]; class symbols): A (a compound having 10 or more and less than 20 is denoted as A); NRAS/KRAS (ratio of KD value with respect to GDP-bound NRAS wild-type protein to KD value with respect to KRAS) ([2]; class symbols): AA (a compound having 20 or more is denoted as AA)

Question: How did the “HRAS/KRAS (ratio of KD value with respect to GDP-bound HRAS wild-type protein to KD value with respect to KRAS)” value [1, 3] turn out when `CC[C@H](C)[C@@H]1NC(=O)[C@@H]2CCCc3ccc(cc3)C[C@@H](C(=O)N(C)CC(=O)N[C@@H](CCc3ccc(C(F)(F)F)c(OC)c3)C(=O)N3C[C@H](OC4CCC4)C[C@H]3C(=O)NC3(CC(C)(C)C3)C(=O)N(C)[C@@H](C3CCCC3)C(=O)N(C)[C@H](C(=O)N(C)CC)CC(=O)N2C)N2CC/C=C\C[C@@H](C2=O)N(C)C(=O)CN(C)C1=O` [PP3085] was run?
Answer: Its value is “B (a compound having 3 or more and less than 10 is denoted as B)”.

Question: What about the “NRAS/KRAS (ratio of KD value with respect to GDP-bound NRAS wild-type protein to KD value with respect to KRAS)” value [2, 3] of the same molecule?
Answer: Its value is “A (a compound having 10 or more and less than 20 is denoted as A)”.

Question: For `CCCN1C(=O)[C@@H]2CCN2C(=O)[C@H](C)N(C)C(=O)[C@H]([C@@H](C)CC)NC(=O)[C@H](CC(C)C)N(C)C(=O)C[C@@H](C(=O)N(C)C)NC(=O)[C@H](C2CCCC2)N(C)C(=O)C2(CCC2)NC(=O)[C@@H]2CC(F)(F)CN2C(=O)[C@H](CCc2ccc(C(F)(F)F)c(Cl)c2)NC(=O)CN(C)C(=O)[C@@H]1Cc1ccc(C(F)(F)F)cc1` [PP0382] ([NMeL]I[NMeA][Aze][NPrPhe(4-CF3)][Sar][hPhe(3-Cl-4-CF3)][Pro(4,4-F2)][Ac4c][NMeGly(cPent)]D-NMe2; lactam N-11), which “HRAS/KRAS (ratio of KD for GDP-bound HRAS wild-type to KD for KRAS)” value ([1]; SPR) is on record?
Answer: The value was “B (a compound having 3 or more and less than 10 is denoted as B)”.

Question: What about the “NRAS/KRAS (ratio of KD for GDP-bound NRAS wild-type to KD for KRAS)” value ([2]; SPR) of the same molecule?
Answer: The value was “C (A compound having a KD ratio of 0.1 or more and less than 3 is denoted as C)”.

Question: For `CCC[C@H]1C(=O)N[C@@H]([C@@H](C)CC)C(=O)N(C)CC(=O)N(C)[C@H]2C/C=C\CCN(C2=O)[C@@H](Cc2ccc(C(F)(F)F)cc2)C(=O)N(C)CC(=O)N[C@@H](CCc2ccc3c(C)c(C)n(C)c3c2)C(=O)N2C[C@H](OCC)C[C@H]2C(=O)NC2(CC(C)(C)C2)C(=O)N(C)[C@@H](C(CC)CC)C(=O)N(C)[C@H](C(=O)N(C)C)CC(=O)N1C` [PP2904], which “HRAS/KRAS (ratio of KD value with respect to GDP-bound HRAS wild-type protein to KD value with respect to KRAS)” value ([1]; class symbols) is on record?
Answer: Its value is “A (a compound having 10 or more and less than 20 is denoted as A)”.

Question: What about the “NRAS/KRAS (ratio of KD value with respect to GDP-bound NRAS wild-type protein to KD value with respect to KRAS)” value ([2]; class symbols) of the same molecule?
Answer: Its value is “AA (a compound having 20 or more is denoted as AA)”.

Question: What does the source list for `CCCN1C(=O)[C@@H]2CCN2C(=O)[C@H](C)N(C)C(=O)[C@H]([C@@H](C)CC)NC(=O)[C@H](CC(C)C)N(C)C(=O)C[C@@H](C(=O)N2CCOCC2)N(C)C(=O)[C@H](C2CCCC2)N(C)C(=O)C2(CCCC2)NC(=O)[C@@H]2CC(F)(F)CCN2C(=O)[C@H](CCc2ccc(C(F)(F)F)c(Cl)c2)NC(=O)CN(C)C(=O)[C@@H]1Cc1ccc(C(F)(F)F)cc1` [PP0285] ([NMeL]I[NMeA][Aze][NPrPhe(4-CF3)][Sar][hPhe(3-Cl-4-CF3)][Pip(4,4-F2)][Ac5c][NMeGly(cPent)][NMeD]-Morpholide; lactam N-11)?
Answer: HRAS/KRAS (ratio of KD for GDP-bound HRAS wild-type to KD for KRAS) ([1]; SPR): B (a compound having 3 or more and less than 10 is denoted as B); NRAS/KRAS (ratio of KD for GDP-bound NRAS wild-type to KD for KRAS) ([2]; SPR): C (A compound having a KD ratio of 0.1 or more and less than 3 is denoted as C)
